The NIST ThermoML archive (doi:10.1016/j.jct.2016.06.031)
Numbers after ± are expanded uncertainties.

Key:
[1] = refractive index (Na D-line) (dimensionless); settings: 101.33 kPa, Liquid, Standard Abbe refractometry
[2] = Liquid; for mass density: 101.33 kPa, Vibrating tube method; for vapor or sublimation pressure: Closed cell (Static) method

SMILES: CCCCCCC [heptane]
- refractive index ([1]; 293.15 K): 1.3878 ± 0.0007
- refractive index ([1]; 298.15 K): 1.3852 ± 0.0007
- mass density ([2]; 293.15 K): 683.8 ± 0.9 kg/m3
- mass density ([2]; 295.15 K): 681.6 ± 0.9 kg/m3
- mass density ([2]; 297.15 K): 679.9 ± 0.9 kg/m3
- mass density ([2]; 298.15 K): 679.1 ± 0.9 kg/m3
- mass density ([2]; 300.4 K): 677.1 ± 0.9 kg/m3

SMILES: FC(F)(F)C(F)(F)F [hexafluoroethane]
- vapor or sublimation pressure ([2]; 273.06 K): 1839 ± 6 kPa
- vapor or sublimation pressure ([2]; 278.07 K): 2100 ± 6 kPa
- vapor or sublimation pressure ([2]; 283.07 K): 2388 ± 7 kPa
- vapor or sublimation pressure ([2]; 288.07 K): 2701 ± 7 kPa
- vapor or sublimation pressure ([2]; 292.07 K): 2972 ± 8 kPa
